Laboratory results published in publication PMC5047949, “Kinetic analysis of the translocator protein positron emission tomography ligand [^18F]GE-180 in the human brain” (European Journal of Nuclear Medicine and Molecular Imaging, 2016).

Key:
[1] = tested on: translocator protein (TSPO); experiment: Dynamic [^18F]GE-180 brain PET with arterial input; 1TC, 2TC and Logan kinetic modelling; assay type: in vivo, human; conditions: for Distribution volume ratio: cortical grey matter pseudoreference, median (IQR); for K1 / VT / k2 / k3 / k4: median (interquartile range)
Description: PET studies were performed on a Biograph 6 (six-slice CT) scanner after administration of 182 ± 3.1 MBq via intravenous bolus injection over 10 s followed by a 10-mL saline flush. A low-dose CT scan preceded the PET acquisition to allow correction for tissue attenuation. Emission data were then acquired over 90 min in list mode and reconstructed as 24 temporal frames (6 × 15, 3 × 60, 5 × 120, 5 × 300, 5 × 600 s) using filtered back-projection (matrix size 168 × 168, zoom 2.6, 5-mm gaussian filter, pixel size 1.56 × 1.56, slice thickness 3 mm) with and without attenuation correction. Standard corrections for scatter, decay and random counts were applied.
We used the PET data analysis and kinetic modelling toolkit, MIAKAT™ (www.miakat.org), which incorporates software from SPM5 (Wellcome Trust Centre for Neuroimaging) and FSL (FMRIB, University of Oxford). The brain was initially extracted from the T1-weighted MR images. The CIC neuroanatomical atlas was nonlinearly registered to the individual’s extracted brain in order to generate a personalized set of anatomically parcellated regions. Frame-by-frame motion correction of the dynamic (without attenuation correction) PET data was performed using mutual information coregistration of the individual frames to a reference frame. An average motion-corrected PET image was generated and used for coregistration with the T1-weighted MR image. Finally, regional tissue time–activity curves (TACs) were generated for each region of interest (ROI) defined from the CIC atlas that had been transformed into each individual’s image space.
Datasets were analysed with a one-tissue compartment (1TC) model and a two-tissue compartment (2TC) model and the Logan graphical method, using the metabolite-corrected plasma input function as previously described with a fixed 5 % blood volume correction. The primary outcome measures were the radioligand delivery rate constant (K1; mL cm^−3 min^−1), total distribution volume (VT: mL cm^−3), and standardized uptake values (SUV). The SUV ratio (SUVR) and distribution volume ratio (DVR) were estimated using the cortical grey matter as a pseudo reference region.
To investigate the stability of VT over different scan durations, a time stability analysis was performed by analysing data for total time windows that ranged between 40 and 90 min in 10-min increments.

[2] = Safety and tolerability after radioligand administration; assay type: in vivo, human
Excerpt: With regard to correlations between age and the principal outcome measure, there were no significant correlations between age and VT in either HABs and MABs in any of the ROIs studied (Spearman’s rho = −0.3 – 0.7 p = 0.188 – 0.873 in HABs; Spearman’s rho = 0.1 – 0.8, p = 0.104 – 0.94 in MABs). There were also no significant relationships between age and outcome measures when added as a covariate in the repeated measures ANOVA. Demographic data are provided in Supplementary Table 1.

[3] = pH 7.4; preclinical work; cited from earlier work
[4] = humans; in vitro work, not measured in this study; cited from earlier work
[5] = parameters: method as in PMID 26072270; conditions: 60 min; earlier preclinical work; cited from earlier work
[6] = 2TC-fix model, across all regions and subjects
[7] = Logan graphical method, Cerebellum
[8] = Logan graphical method, Frontal lobe
[9] = Logan graphical method, Occipital lobe
[10] = Logan graphical method, Parietal lobe
[11] = Logan graphical method, Striatum
[12] = Logan graphical method, Temporal lobe
[13] = Logan graphical method, Thalamus

CCN(CC)C(=O)[C@H]1CCCc2c1c1c(OC)cccc1n2CC[18F] [[^18F]GE-180]
Distribution volume ratio ([1]; 1TC model, Cerebellum): 0.968 (0.91 – 1) | K1 ([1]; 1TC model, Cerebellum): 0.00656 (0.0054 – 0.0076) mL/min | VT ([1]; 1TC model, Cerebellum): 0.178 (0.16 – 0.22) mL/cm^3 | k2 ([1]; 1TC model, Cerebellum): 0.0339 (0.034 – 0.034) /min | Distribution volume ratio ([1]; 1TC model, Frontal lobe): 0.939 (0.94 – 0.95) | K1 ([1]; 1TC model, Frontal lobe): 0.00472 (0.0041 – 0.006) mL/min | VT ([1]; 1TC model, Frontal lobe): 0.171 (0.15 – 0.22) mL/cm^3 | k2 ([1]; 1TC model, Frontal lobe): 0.0271 (0.023 – 0.028) /min | Distribution volume ratio ([1]; 1TC model, Occipital lobe): 1.12 (1.1 – 1.2) | K1 ([1]; 1TC model, Occipital lobe): 0.00621 (0.0057 – 0.0074) mL/min | VT ([1]; 1TC model, Occipital lobe): 0.214 (0.19 – 0.25) mL/cm^3 | k2 ([1]; 1TC model, Occipital lobe): 0.03 (0.025 – 0.032) /min | Distribution volume ratio ([1]; 1TC model, Parietal lobe): 0.969 (0.96 – 1) | K1 ([1]; 1TC model, Parietal lobe): 0.00513 (0.004 – 0.0061) mL/min | VT ([1]; 1TC model, Parietal lobe): 0.19 (0.16 – 0.22) mL/cm^3 | k2 ([1]; 1TC model, Parietal lobe): 0.027 (0.024 – 0.028) /min | Distribution volume ratio ([1]; 1TC model, Striatum): 0.826 (0.78 – 0.89) | K1 ([1]; 1TC model, Striatum): 0.00358 (0.003 – 0.0046) mL/min | VT ([1]; 1TC model, Striatum): 0.155 (0.14 – 0.2) mL/cm^3 | k2 ([1]; 1TC model, Striatum): 0.0241 (0.021 – 0.025) /min | K1 ([1]; 1TC model, Temporal lobe): 0.00514 (0.0048 – 0.006) mL/min | VT ([1]; 1TC model, Temporal lobe): 0.182 (0.17 – 0.24) mL/cm^3 | k2 ([1]; 1TC model, Temporal lobe): 0.0266 (0.025 – 0.028) /min | Distribution volume ratio ([1]; 1TC model, Thalamus): 1.03 (0.96 – 1.1) | K1 ([1]; 1TC model, Thalamus): 0.00555 (0.0046 – 0.0058) mL/min | VT ([1]; 1TC model, Thalamus): 0.182 (0.17 – 0.24) mL/cm^3 | k2 ([1]; 1TC model, Thalamus): 0.0261 (0.024 – 0.028) /min | Distribution volume ratio ([1]; 2TC model, Cerebellum): 0.916 (0.69 – 0.98) | K1 ([1]; 2TC model, Cerebellum): 0.0224 (0.016 – 1.3) mL/min | VT ([1]; 2TC model, Cerebellum): 0.281 (0.25 – 0.33) mL/cm^3 | k2 ([1]; 2TC model, Cerebellum): 0.319 (0.23 – 78) /min | k3 ([1]; 2TC model, Cerebellum): 0.0331 (0.029 – 0.091) /min | k4 ([1]; 2TC model, Cerebellum): 0.0113 (0.0084 – 0.018) /min | Distribution volume ratio ([1]; 2TC model, Frontal lobe): 0.984 (0.96 – 1.2) | K1 ([1]; 2TC model, Frontal lobe): 0.0102 (0.0089 – 0.013) mL/min | VT ([1]; 2TC model, Frontal lobe): 0.346 (0.26 – 0.5) mL/cm^3 | k2 ([1]; 2TC model, Frontal lobe): 0.195 (0.15 – 1.6) /min | k3 ([1]; 2TC model, Frontal lobe): 0.0301 (0.024 – 0.15) /min | k4 ([1]; 2TC model, Frontal lobe): 0.00653 (0.004 – 0.017) /min | Distribution volume ratio ([1]; 2TC model, Occipital lobe): 1.07 (0.97 – 1.1) | K1 ([1]; 2TC model, Occipital lobe): 0.0238 (0.019 – 0.031) mL/min | VT ([1]; 2TC model, Occipital lobe): 0.35 (0.3 – 0.52) mL/cm^3 | k2 ([1]; 2TC model, Occipital lobe): 0.385 (0.2 – 0.62) /min | k3 ([1]; 2TC model, Occipital lobe): 0.0395 (0.036 – 0.054) /min | k4 ([1]; 2TC model, Occipital lobe): 0.0101 (0.0062 – 0.014) /min | Distribution volume ratio ([1]; 2TC model, Parietal lobe): 1.01 (0.98 – 1.1) | K1 ([1]; 2TC model, Parietal lobe): 0.0116 (0.011 – 0.014) mL/min | VT ([1]; 2TC model, Parietal lobe): 0.33 (0.31 – 0.42) mL/cm^3 | k2 ([1]; 2TC model, Parietal lobe): 0.192 (0.15 – 0.25) /min | k3 ([1]; 2TC model, Parietal lobe): 0.0334 (0.025 – 0.039) /min | k4 ([1]; 2TC model, Parietal lobe): 0.00873 (0.0045 – 0.014) /min | Distribution volume ratio ([1]; 2TC model, Striatum): 0.451 (0.41 – 0.71) | K1 ([1]; 2TC model, Striatum): 0.00413 (0.0033 – 0.0088) mL/min | VT ([1]; 2TC model, Striatum): 0.155 (0.14 – 0.22) mL/cm^3 | k2 ([1]; 2TC model, Striatum): 1.14 (0.66 – 1.7) /min | k3 ([1]; 2TC model, Striatum): 4.89 (0.62 – 9.1) /min | k4 ([1]; 2TC model, Striatum): 0.14 (0.027 – 0.21) /min | Distribution volume ratio ([1]; 2TC model, Temporal lobe): 0.958 (0.93 – 1) | K1 ([1]; 2TC model, Temporal lobe): 0.0143 (0.012 – 0.032) mL/min | VT ([1]; 2TC model, Temporal lobe): 0.306 (0.27 – 0.42) mL/cm^3 | k2 ([1]; 2TC model, Temporal lobe): 0.217 (0.16 – 1.3) /min | k3 ([1]; 2TC model, Temporal lobe): 0.0348 (0.03 – 0.15) /min | k4 ([1]; 2TC model, Temporal lobe): 0.00927 (0.0063 – 0.016) /min | Distribution volume ratio ([1]; 2TC model, Thalamus): 0.922 (0.81 – 1.1) | K1 ([1]; 2TC model, Thalamus): 0.0118 (0.011 – 0.014) mL/min | VT ([1]; 2TC model, Thalamus): 0.376 (0.28 – 0.41) mL/cm^3 | k2 ([1]; 2TC model, Thalamus): 0.16 (0.14 – 0.2) /min | k3 ([1]; 2TC model, Thalamus): 0.0315 (0.026 – 0.042) /min | k4 ([1]; 2TC model, Thalamus): 0.00881 (0.0062 – 0.012) /min | average regional delivery rate constant (K1) ([1]; 2TC model, healthy subjects): 0.01 mL cm^−3 min^−1 | K1, average [1, 6]: 0.013 mL cm^−3 min^−1 | VT, average [1, 6]: 0.311 mL cm^−3 | k2, average [1, 6]: 0.229 min⁻¹ | k3, average [1, 6]: 0.035 min⁻¹ | k4, average [1, 6]: 0.010 min⁻¹ | Distribution volume ratio [1, 7]: 0.99 (0.91 – 1) | VT [1, 7]: 0.29 (0.24 – 0.3) mL/cm^3 | Distribution volume ratio [1, 8]: 0.931 (0.92 – 0.97) | VT [1, 8]: 0.265 (0.23 – 0.33) mL/cm^3 | Distribution volume ratio [1, 9]: 1.14 (1.1 – 1.2) | VT [1, 9]: 0.34 (0.3 – 0.39) mL/cm^3 | Distribution volume ratio [1, 10]: 0.996 (0.93 – 1) | VT [1, 10]: 0.284 (0.23 – 0.35) mL/cm^3 | Distribution volume ratio [1, 11]: 0.844 (0.7 – 0.92) | VT [1, 11]: 0.25 (0.21 – 0.29) mL/cm^3 | Distribution volume ratio [1, 12]: 1.01 (0.95 – 1.1) | VT [1, 12]: 0.312 (0.24 – 0.36) mL/cm^3 | Distribution volume ratio [1, 13]: 0.991 (0.98 – 1) | VT [1, 13]: 0.3 (0.26 – 0.31) mL/cm^3 | time of peak concentration in the brain ([1]; all subjects): around 1 min | extraction across the blood–brain barrier (first-pass extraction) ([1]; healthy subjects, from K1 of the 2TC model): approximately 1% | estimated median VT ([1]; striatum (lowest ROI), 2TC model): 0.16 mL cm^−3 | estimated median VT ([1]; thalamus (highest ROI), 2TC model): 0.38 mL cm^−3 | share of activity in a typical ROI that came from blood ([1]; tissue TAC minus whole-blood radioactivity curve): approximately 20% | safety of tracer administration ([2]; healthy subjects): safe | pharmacological effects after injection ([2]; patient reports, blood pressure, pulse, respiration rate, oxygen saturation): no pharmacological effects | logD [3]: 2.95 | plasma free fraction [4]: approximately 3% | parent in the brain [5]: 94%
